Read-outs that look alike come from different tables or passages of the source.
How the values were obtained:
[1] = system: velvetleaf; assay: Example 1: pot test, foliar treatment, visually observed growth inhibition of velvetleaf; type: in vivo, Abutilon theophrasti MEDIC.
Text: (§1) When the herbicidal activity in a case where two active ingredients are combined, is larger than the simple sum of the respective herbicidal activities of the two active ingredients (the expected activity), it is called a synergistic effect. The activity expected by the combination of two active ingredients can be calculated as follows (Colby S. R., “Weed”, vol. 15, p. 20-22, 1967). E=α+β−(α×β+100) where
(§2) α: growth inhibition rate when treated with x (g/ha) of herbicide X,
(§3) β: growth inhibition rate when treated with y (g/ha) of herbicide Y,
(§4) E: growth inhibition rate expected when treated with x (g/ha) of herbicide X and y (g/ha) of herbicide Y.
(§5) That is, when the actual growth inhibition rate (measured value) is larger than the growth inhibition rate by the above calculation (calculated value), the activity by the combination can be regarded as showing a synergistic effect.
(§6) Upland field soil was put into a 1/1,000,000 hectare pot, and seeds of various plants were sown. When the respective plants reached predetermined leaf stage, herbicidal compositions in predetermined amounts were diluted with water in an amount corresponding to 300 L/ha and applied for foliar treatment by a small sprayer.
(§7) Further, in accordance with the above Colby's formula, the growth inhibition rate (calculated value) was calculated. In Tables, with respect to the compound A, Compound Nos. in Table 1 or 3 are described, and with respect to other herbicidal compounds, common names are described.

[2] = system: crabgrass; assay: Example 1: pot test, foliar treatment, visually observed growth inhibition of crabgrass; type: in vivo
Text: as §1, §2, §3, §4, §5, §6, §7

[3] = 3.0 to 4.3 leaf stage, 21st day after application, 100 g/ha
[4] = 3.5 to 4.3 leaf stage, 21st day after application, 3.5 g/ha
[5] = 3.8 to 4.4 leaf stage, 21st day after application, 3.5 g/ha

Compound: NCCO.O=C(O)c1nc(Cl)ccc1Cl [Clopyralid-olamine]
- Growth inhibition rate (%) of velvetleaf, Measured value ([1]; 3.3 to 4.3 leaf stage, 20th day after application, 150 g/ha): 5%
- Growth inhibition rate (%) of velvetleaf, Measured value ([1]; 3.3 to 4.3 leaf stage, 20th day after application, 300 g/ha): 10%
- Growth inhibition rate (%) of velvetleaf, Measured value ([1]; 3.5 to 4.1 leaf stage, 14th day after application, 150 g/ha): 20%
- Growth inhibition rate (%) of velvetleaf, Measured value ([1]; 3.5 to 4.1 leaf stage, 14th day after application, 300 g/ha): 20%
- Growth inhibition rate (%) of crabgrass, Measured value [2, 3]: 0%

Compound: CNC.COc1c(Cl)ccc(Cl)c1C(=O)O [Dicamba-dimethylammonium]
- Growth inhibition rate (%) of velvetleaf, Measured value ([1]; 2.0 to 2.8 leaf stage, 21st day after application, 100 g/ha): 50%
- Growth inhibition rate (%) of velvetleaf, Measured value ([1]; 2.0 to 2.8 leaf stage, 21st day after application, 200 g/ha): 55%
- Growth inhibition rate (%) of velvetleaf, Measured value ([1]; 3.0 to 3.8 leaf stage, 28th day after application, 100 g/ha): 50%
- Growth inhibition rate (%) of velvetleaf, Measured value ([1]; 3.2 to 5.0 leaf stage, 14th day after application, 100 g/ha): 50%
- Growth inhibition rate (%) of velvetleaf, Measured value ([1]; 3.2 to 5.0 leaf stage, 21st day after application, 100 g/ha): 50%
- Growth inhibition rate (%) of velvetleaf, Measured value ([1]; 3.5 to 4.3 leaf stage, 21st day after application, 100 g/ha): 50%
- Growth inhibition rate (%) of crabgrass, Measured value [2, 3]: 0%
- Growth inhibition rate (%) of crabgrass, Measured value ([2]; 3.0 to 4.3 leaf stage, 21st day after application, 200 g/ha): 0%
- Growth inhibition rate (%) of crabgrass, Measured value ([2]; 3.5 to 5.0 leaf stage, 22nd day after application, 100 g/ha): 0%
- Growth inhibition rate (%) of crabgrass, Measured value ([2]; 3.5 to 5.0 leaf stage, 22nd day after application, 200 g/ha): 0%
- Growth inhibition rate (%) of crabgrass, Measured value ([2]; 3.7 to 4.6 leaf stage, 21st day after application, 100 g/ha): 0%
- Growth inhibition rate (%) of crabgrass, Measured value ([2]; 3.7 to 4.6 leaf stage, 21st day after application, 200 g/ha): 15%

Compound: CC(C)N(C(=O)COc1nnc(C(F)(F)F)s1)c1ccc(F)cc1 [Flufenacet]
- inhibition at 300 g/ha ([1]; Abutilon theophrasti, foliar, 3.2 to 4.3 leaf stage, 21st day after application, 300 g/ha, read-out: Growth inhibition rate (%) of velvetleaf, Measured value): 0%
- inhibition at 150 g/ha ([2]; Digitaria sanguinalis, foliar, 3.0 to 4.3 leaf stage, 21st day after application, 150 g/ha, read-out: Growth inhibition rate (%) of crabgrass, Measured value): 0%
- inhibition at 300 g/ha ([2]; Digitaria sanguinalis, foliar, 3.0 to 4.3 leaf stage, 21st day after application, read-out: Growth inhibition rate (%) of crabgrass, Measured value): 5%
- inhibition at 300 g/ha ([2]; Digitaria sanguinalis, foliar, 3.2 to 4.3 leaf stage, 21st day after application, read-out: Growth inhibition rate (%) of crabgrass, Measured value): 10%

Compound: CON(C)C(=O)Nc1ccc(Cl)c(Cl)c1 [Linuron]
- inhibition at 250 g/ha ([1]; Abutilon theophrasti, foliar, 3.3 to 4.3 leaf stage, 20th day after application, 250 g/ha, read-out: Growth inhibition rate (%) of velvetleaf, Measured value): 55%
- inhibition at 500 g/ha ([1]; Abutilon theophrasti, foliar, 3.3 to 4.3 leaf stage, 20th day after application, 500 g/ha, read-out: Growth inhibition rate (%) of velvetleaf, Measured value): 93%
- inhibition at 250 g/ha ([2]; Digitaria sanguinalis, foliar, 3.5 to 4.2 leaf stage, 14th day after application, 250 g/ha, read-out: Growth inhibition rate (%) of crabgrass, Measured value): 20%
- inhibition at 500 g/ha ([2]; Digitaria sanguinalis, foliar, 3.5 to 4.2 leaf stage, 14th day after application, 500 g/ha, read-out: Growth inhibition rate (%) of crabgrass, Measured value): 35%

Compound: COC(=O)c1c(S(C)(=O)=O)ccc(C(=O)c2cnn(C)c2O)c1C [No. 2-1]
- Growth inhibition rate (%) of velvetleaf, Measured value [1, 4]: 30%
- Growth inhibition rate (%) of crabgrass, Measured value [2, 5]: 45%

Compound: CCOc1c(S(C)(=O)=O)ccc(C(=O)c2cnn(C)c2O)c1C [No. 2-19]
- Growth inhibition rate (%) of velvetleaf, Measured value ([1]; 3.2 to 5.0 leaf stage, 14th day after application, 7 g/ha): 60%
- Growth inhibition rate (%) of velvetleaf, Measured value ([1]; 3.2 to 5.0 leaf stage, 21st day after application, 7 g/ha): 50%
- Growth inhibition rate (%) of crabgrass, Measured value ([2]; 3.8 to 5.2 leaf stage, 21st day after application, 7 g/ha): 30%

Compound: COCCOc1c(S(C)(=O)=O)ccc(C(=O)c2cnn(C)c2O)c1C [No. 2-28]
- Growth inhibition rate (%) of velvetleaf, Measured value ([1]; 3.3 to 4.2 leaf stage, 14th day after application, 7 g/ha): 93%
- Growth inhibition rate (%) of velvetleaf, Measured value ([1]; 3.3 to 4.2 leaf stage, 14th day after application, 15 g/ha): 97%
- Growth inhibition rate (%) of velvetleaf, Measured value ([1]; 3.3 to 4.2 leaf stage, 22nd day after application, 7 g/ha): 93%
- Growth inhibition rate (%) of velvetleaf, Measured value ([1]; 3.3 to 4.2 leaf stage, 22nd day after application, 15 g/ha): 97%
- Growth inhibition rate (%) of velvetleaf, Measured value ([1]; 3.5 to 4.0 leaf stage, 14th day after application, 7 g/ha): 83%
- Growth inhibition rate (%) of velvetleaf, Measured value ([1]; 3.5 to 4.0 leaf stage, 14th day after application, 15 g/ha): 95%
- Growth inhibition rate (%) of velvetleaf, Measured value ([1]; 3.5 to 4.0 leaf stage, 22nd day after application, 7 g/ha): 90%
- Growth inhibition rate (%) of velvetleaf, Measured value ([1]; 3.5 to 4.1 leaf stage, 14th day after application, 7 g/ha): 75%
- Growth inhibition rate (%) of velvetleaf, Measured value ([1]; 3.5 to 4.1 leaf stage, 14th day after application, 15 g/ha): 85%
- Growth inhibition rate (%) of velvetleaf, Measured value ([1]; 3.5 to 4.1 leaf stage, 20th day after application, 7 g/ha): 75%
- Growth inhibition rate (%) of velvetleaf, Measured value ([1]; 3.5 to 4.1 leaf stage, 20th day after application, 15 g/ha): 88%
- Growth inhibition rate (%) of crabgrass, Measured value ([2]; 3.5 to 5.0 leaf stage, 22nd day after application, 7 g/ha): 88%
- Growth inhibition rate (%) of crabgrass, Measured value ([2]; 3.5 to 5.0 leaf stage, 22nd day after application, 15 g/ha): 93%
- Growth inhibition rate (%) of crabgrass, Measured value ([2]; 3.6 to 4.5 leaf stage, 14th day after application, 7 g/ha): 90%
- Growth inhibition rate (%) of crabgrass, Measured value ([2]; 3.6 to 4.5 leaf stage, 14th day after application, 15 g/ha): 97%
- Growth inhibition rate (%) of crabgrass, Measured value ([2]; 3.6 to 4.5 leaf stage, 22nd day after application, 7 g/ha): 93%
- Growth inhibition rate (%) of crabgrass, Measured value ([2]; 4.1 to 5.3 leaf stage, 14th day after application, 15 g/ha): 85%
- Growth inhibition rate (%) of crabgrass, Measured value ([2]; 4.1 to 5.3 leaf stage, 20th day after application, 7 g/ha): 85%
- Growth inhibition rate (%) of crabgrass, Measured value ([2]; 4.1 to 5.3 leaf stage, 20th day after application, 15 g/ha): 97%
- Growth inhibition rate (%) of crabgrass, Measured value ([2]; 4.3 to 4.5 leaf stage, 20th day after application, 15 g/ha): 80%

Compound: CCOCc1c(S(C)(=O)=O)ccc(C(=O)c2cnn(C)c2O)c1C [No. 2-41]
- Growth inhibition rate (%) of velvetleaf, Measured value ([1]; 3.2 to 5.0 leaf stage, 14th day after application, 3.5 g/ha): 70%
- Growth inhibition rate (%) of velvetleaf, Measured value ([1]; 3.2 to 5.0 leaf stage, 21st day after application, 3.5 g/ha): 60%
- Growth inhibition rate (%) of crabgrass, Measured value ([2]; 3.8 to 5.2 leaf stage, 21st day after application, 3.5 g/ha): 35%

Compound: CCn1ncc(C(=O)c2ccc(S(C)(=O)=O)c(OCCOC)c2C)c1O [No. 2-161]
- Growth inhibition rate (%) of velvetleaf, Measured value ([1]; 3.0 to 3.8 leaf stage, 15th day after application, 3.5 g/ha): 60%
- Growth inhibition rate (%) of velvetleaf, Measured value ([1]; 3.0 to 3.8 leaf stage, 15th day after application, 7 g/ha): 60%
- Growth inhibition rate (%) of velvetleaf, Measured value ([1]; 3.0 to 3.8 leaf stage, 28th day after application, 3.5 g/ha): 45%
- Growth inhibition rate (%) of velvetleaf, Measured value ([1]; 3.0 to 3.8 leaf stage, 28th day after application, 7 g/ha): 65%
- Growth inhibition rate (%) of crabgrass, Measured value ([2]; 3.3 to 4.2 leaf stage, 28th day after application, 3.5 g/ha): 70%
- Growth inhibition rate (%) of crabgrass, Measured value ([2]; 3.3 to 4.2 leaf stage, 28th day after application, 7 g/ha): 83%

Compound: COCc1c(S(C)(=O)=O)ccc(C(=O)c2cnn(C)c2O)c1C [No. 2-191]
- Growth inhibition rate (%) of velvetleaf, Measured value [1, 4]: 40%
- Growth inhibition rate (%) of crabgrass, Measured value [2, 5]: 45%
